Data taken from the supplement of paper PMC11061612.

What was measured:
[1] = tested on: BE-13 (T-Lymphoblastic Leukemia); experiment: Bliss excess, mean over the matrix (fraction); higher = more synergy
Outline: (§1)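 Cell lines in DMEM/F12 or RPMI with 10% FBS were plated in 1536-well plates, held 24 hours at 37°C, 5% CO2, then given two-drug dose matrices for 72 hours (DMSO typically 0.2%). Viability was read by CellTiter-Glo 2.0 luminescence and scaled as inhibition from 0 (vehicle wells) to 1 (blank wells). Combination Emax is the second-highest inhibition in the matrix; Bliss excess is observed combination effect minus expected EA + EB − EA·EB, EA and EB being single-agent effects.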

[2] = tested on: BFTC-909 (Kidney Carcinoma); experiment: as above
Outline: as §1

[3] = tested on: Detroit562 (Head and Neck Carcinoma); experiment: as above
Outline: as §1

[4] = tested on: FTC-133 (Thyroid Gland Carcinoma); experiment: as above
Outline: as §1

[5] = tested on: HeLa (Cervical Carcinoma); experiment: as above
Outline: as §1

[6] = tested on: Hs-746T (Gastric Carcinoma); experiment: as above
Outline: as §1

[7] = tested on: HuCCT1 (Biliary Tract Carcinoma); experiment: as above
Outline: as §1

[8] = tested on: KMRC-20 (Kidney Carcinoma); experiment: as above
Outline: as §1

[9] = tested on: L-428 (Hodgkin's Lymphoma); experiment: as above
Outline: as §1

[10] = tested on: LCLC-97TM1 (Non-Small Cell Lung Carcinoma); experiment: as above
Outline: as §1

[11] = tested on: LNZTA3WT4 (Low Grade Glioma); experiment: as above
Outline: as §1

[12] = tested on: LS-123 (Colorectal Carcinoma); experiment: as above
Outline: as §1

NCI-H2052 (Mesothelioma) = experiment: as above
Outline: as §1

[13] = tested on: OV-56 (Ovarian Carcinoma); experiment: as above
Outline: as §1

[14] = tested on: OVCAR-5 (Ovarian Carcinoma); experiment: as above
Outline: as §1

[15] = tested on: SNU-16 (Gastric Carcinoma); experiment: as above
Outline: as §1

BPH-1 (Non-Cancerous) = experiment: combination Emax (second highest fraction inhibited in the dose matrix, 72 h); higher = more inhibition; extreme values may be limits of the assay
Outline: as §1

[16] = tested on: Detroit562 (Head and Neck Carcinoma); experiment: as above
Outline: as §1

[17] = tested on: Hs-746T (Gastric Carcinoma); experiment: as above
Outline: as §1

[18] = tested on: NUGC-4 (Gastric Carcinoma); experiment: as above
Outline: as §1
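Throughout, for Bliss excess, mean over the matrix: after 72 h of two-drug dosing.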

SMILES | Bliss excess [1] | Bliss excess [2] | Bliss excess [3] | Bliss excess [4] | Bliss excess [5] | Bliss excess [6] | Bliss excess [7] | Bliss excess [8] | Bliss excess [9] | Bliss excess [10] | Bliss excess [11] | Bliss excess [12] | Bliss excess (NCI-H2052 (Mesothelioma)) | Bliss excess [13] | Bliss excess [14] | Bliss excess [15] | combination Emax (BPH-1 (Non-Cancerous)) | combination Emax [16] | combination Emax [17] | combination Emax [18]
Cc1cc2ncnn2cc1Nc1ncc2c(n1)n(C1CCOCC1)c(=O)n2C [AZD7648] + O=C(c1cc(Cc2n[nH]c(=O)c3ccccc23)ccc1F)N1CCN(C(=O)C2CC2)CC1 [Olaparib] (first compound max 10 µM, 7x7, partner max 10 µM) | -0.0079 | -0.037 | -0.0108 | -0.0306 | -0.0016 | -0.0732 | -0.028 | -0.0594 | -0.019 | -0.0218 | -0.0341 | -0.0221 | -0.0521 | -0.0157 | -0.0349 | -0.0301 | 0.515 | 0.376 | 0.337 | 0.202
Cc1nc(Nc2ncc(C(=O)Nc3c(C)cccc3Cl)s2)cc(N2CCN(CCO)CC2)n1 [Dasatinib] + CC(=O)Nc1cccc(-n2c(=O)n(C3CC3)c(=O)c3c(Nc4ccc(I)cc4F)n(C)c(=O)c(C)c32)c1 [Trametinib] (first compound max 2 µM, 7x7, partner max 1 µM) | 0.123 | -0.0139 | -0.0007 | -0.0878 | -0.0672 | -0.0943 | -0.0272 | -0.0518 | -0.0494 | 0.0455 | -0.0794 | 0.0891 | -0.0528 | 0.0114 | 0.0217 | -0.0261 | 0.744 | 0.862 | 0.746 | 0.431
C[C@@H](c1ccc2nccn2c1)n1nnc2ncc(-c3cnn(C)c3)nc21 [Savolitinib] + CC1(C)CCC(CN2CCN(c3ccc(C(=O)NS(=O)(=O)c4ccc(NCC5CCOCC5)c([N+](=O)[O-])c4)c(Oc4cnc5[nH]ccc5c4)c3)CC2)=C(c2ccc(Cl)cc2)C1 [Venetoclax] (first compound max 1 µM, 7x7, partner max 1 µM) | -0.0307 | -0.0401 | -0.0322 | -0.0611 | -0.0374 | -0.0105 | -0.0525 | -0.0524 | -0.0284 | -0.0427 | -0.0907 | -0.0794 | -0.0549 | -0.0419 | -0.0597 | -0.0188 | 0.136 | 0.0649 | 0.664 | 0.167
Cc1cc2ncnn2cc1Nc1ncc2c(n1)n(C1CCOCC1)c(=O)n2C [AZD7648] + C=CCn1c(=O)c2cnc(Nc3ccc(N4CCN(C)CC4)cc3)nc2n1-c1cccc(C(C)(C)O)n1 [AZD1775] (first compound max 10 µM, partner max 1 µM) | 0.0217 | 0.0097 | 0.0575 | 0.0069 | -0.0542 | -0.0827 | 0.0065 | -0.0164 | 0.0144 | 0.0234 | -0.0049 | -0.079 | -0.0039 | 0.0602 | -0.0038 | -0.0345 | 0.53 | 0.704 | 0.652 | 0.359
COc1nnc2ccc(N3CCC(c4ccc(OCCN5CCN(C)C(=O)[C@H]5C)cc4)CC3)nn12 [AZD5153] + CN(CC[C@H](CSC1=CC=CC=C1)NC2=C(C=C(C=C2)S(=O)(=O)NC(=O)C3=CC=C(C=C3)N4CCC(CC4)[C@H](C5=CC=CC=C5C6=CC=C(C=C6)Cl)O)S(=O)(=O)C(F)(F)F)CCO [AZD4320] (first compound max 1 µM, 7x7, partner max 1 µM) |  | 0.0663 | 0.0847 | 0.112 | -0.033 | 0.0125 |  | 0.0384 | -0.0432 | -0.0034 |  |  | -0.0348 | 0.015 |  |  | 0.928 | 0.942 | 0.557 | 0.634
CN(CCO)CC[C@H](CSc1ccccc1)Nc1ccc(S(=O)(=O)NC(=O)c2ccc(N3CCC([C@@H](O)c4ccccc4-c4ccc(Cl)cc4)CC3)cc2)cc1S(=O)(=O)C(F)(F)F [AZD4320] + C[C@@H](Nc1cc(F)cc(F)c1)c1cc(C(=O)N(C)C)cc2c(=O)cc(N3CCOCC3)oc12 [AZD8186] (first compound max 1 µM, 7x7, partner max 3 µM) | -0.0065 | -0.0011 | 0.0261 | 0.0718 | 0.0156 | -0.0354 | 0.0583 | 0.0459 | 0.0393 | -0.014 | -0.0197 |  | -0.0278 | -0.0031 | -0.0133 | 0.0286 | 0.733 | 0.666 | 0.677 | 0.564
COc1cc2ncnc(Nc3ccc(F)c(Cl)c3)c2cc1OCCCN1CCOCC1 [Gefitinib] + CC(C)n1c(=O)n(C)c2cnc3cc(F)c(-c4ccc(OCCCN5CCCCC5)nc4)cc3c21 [AZD1390] (first compound max 10 µM, 7x7, partner max 0.3 µM) | -0.0956 | -0.0614 | -0.0476 | -0.0752 | -0.0578 | -0.0759 | -0.0347 | -0.056 | -0.0645 | -0.0389 | -0.0393 | -0.0622 | -0.0544 | -0.0543 | -0.0846 | -0.0183 | 0.556 | 0.471 | 0.0968 | 0.481
Cc1cc2ncnn2cc1Nc1ncc2c(n1)n(C1CCOCC1)c(=O)n2C [AZD7648] + CCN(CCO)CCCOc1ccc2c(Nc3cc(CC(=O)Nc4cccc(F)c4)[nH]n3)ncnc2c1 [AZD2811] (first compound max 10 µM, 7x7, partner max 1 µM) | -0.066 | 0.0076 | -0.0142 | 0.0066 | 0.0511 | -0.0291 | 0.0401 | 0.026 | 0.0783 | 0.0467 | 0.0063 | -0.0172 | -0.0104 | 0.0307 | 0.043 | 0.0793 | 0.614 | 0.829 | 0.386 | 0.281
CN(CCO)CC[C@H](CSc1ccccc1)Nc1ccc(S(=O)(=O)NC(=O)c2ccc(N3CCC([C@@H](O)c4ccccc4-c4ccc(Cl)cc4)CC3)cc2)cc1S(=O)(=O)C(F)(F)F [AZD4320] + CCN(CCO)CCCOc1ccc2c(Nc3cc(CC(=O)Nc4cccc(F)c4)[nH]n3)ncnc2c1 [AZD2811] (first compound max 1 µM, 7x7, partner max 1 µM) | 0.0663 | 0.0605 | 0.0043 | 0.0384 | -0.0242 | -0.0095 | -0.0283 | 0.0024 | 0.0083 | 0.0642 | -0.0224 |  | -0.0462 | -0.0293 | -0.0458 | 0.0638 | 0.893 | 0.825 | 0.487 | 0.215
N#Cc1cnc(Nc2cc(NC[C@H]3CNCCO3)c(C(F)(F)F)cn2)cn1 [SRA737] + C=CCn1c(=O)c2cnc(Nc3ccc(N4CCN(C)CC4)cc3)nc2n1-c1cccc(C(C)(C)O)n1 [AZD1775] (first compound max 10 µM, partner max 1 µM) | 0.0657 |  |  |  |  |  | -0.0292 |  |  |  | -0.0108 | -0.0025 |  |  | 0.0274 | 0.109 |  |  |  | 
CN(CCO)CC[C@H](CSc1ccccc1)Nc1ccc(S(=O)(=O)NC(=O)c2ccc(N3CCC([C@@H](O)c4ccccc4-c4ccc(Cl)cc4)CC3)cc2)cc1S(=O)(=O)C(F)(F)F [AZD4320] + Cc1cc2ncnn2cc1Nc1ncc2c(n1)n(C1CCOCC1)c(=O)n2C [AZD7648] (first compound max 1 µM, 7x7, partner max 10 µM) | 0.0028 | -0.0094 | -0.0281 | -0.0097 | -0.0345 | -0.0371 | -0.0407 | -0.0393 | -0.0021 | -0.0214 | -0.0358 |  | -0.0451 | -0.0109 | -0.0452 | 0.0237 | 0.373 | 0.22 | 0.347 | 0.329
CC(=O)c1c(C)c2cnc(Nc3ccc(N4CCNCC4)cn3)nc2n(C2CCCC2)c1=O [Palbociclib] + CN(CC[C@H](CSC1=CC=CC=C1)NC2=C(C=C(C=C2)S(=O)(=O)NC(=O)C3=CC=C(C=C3)N4CCC(CC4)[C@H](C5=CC=CC=C5C6=CC=C(C=C6)Cl)O)S(=O)(=O)C(F)(F)F)CCO [AZD4320] (first compound max 10 µM, 7x7, partner max 1 µM) |  | -0.0576 | 0.0001 | -0.0778 | -0.0385 | -0.0386 |  | -0.0504 | -0.0128 | -0.0326 |  |  | -0.0159 | -0.062 |  |  | 0.592 | 0.633 | 0.408 | 0.411
CN(CCO)CC[C@H](CSc1ccccc1)Nc1ccc(S(=O)(=O)NC(=O)c2ccc(N3CCC([C@@H](O)c4ccccc4-c4ccc(Cl)cc4)CC3)cc2)cc1S(=O)(=O)C(F)(F)F [AZD4320] + C[C@@H]1COCCN1C2=NC(=NC(=C2)C3(CC3)[S@](=N)(=O)C)C4=C5C=CNC5=NC=C4 [AZD6738] (first compound max 1 µM, 7x7, partner max 10 µM) | -0.0251 | 0.042 | -0.015 | 0.0324 | -0.0319 | -0.0021 | -0.0681 | -0.0289 | -0.0103 | -0.0433 | -0.0029 |  | -0.0021 | -0.005 | -0.0282 | 0.0219 | 0.441 | 0.905 | 0.782 | 0.739
N#Cc1cnc(Nc2cc(NC[C@H]3CNCCO3)c(C(F)(F)F)cn2)cn1 [SRA737] + CCc1c2c(nc3ccc(O)cc13)-c1cc3c(c(=O)n1C2)COC(=O)[C@]3(O)CC [SN-38] (first compound max 10 µM, 7x7, partner max 0.3 µM) | 0.057 |  |  |  |  |  | 0.0261 |  |  |  | -0.002 | -0.0163 |  |  | -0.0048 | 0.0524 |  |  |  | 
N#Cc1cnc(Nc2cc(NC[C@H]3CNCCO3)c(C(F)(F)F)cn2)cn1 [SRA737] + O=c1[nH]cc(F)c(=O)[nH]1 [5-Fluorouracil] (first compound max 10 µM, 7x7, partner max 20 µM) | -0.0334 |  |  |  |  |  | 0.102 |  |  |  | -0.0325 | -0.0135 |  |  | -0.0535 | 0.0632 |  |  |  | 
